Each structure is given as a SMILES string.

We go through one compound from PMC6350196 (Drug Metabolism Letters, 2018).

This series can be described thus: QSRR estimation of CHIn+Fbt and CHIbt from LC retention times. The class given is physicochemical. Particulars: predicted (QSRR, equation 13); parent-drug label = average for that drug.

For the compound `CC(C)c1c(C(=O)Nc2ccccc2)c(-c2ccccc2)c(-c2ccc(F)cc2)n1CC[C@@H](O)C[C@@H](O)CC(=O)O` [atorvastatin], the “CHIbt, aromatic oxidation (w/o HB)” value is listed as -16.4 and the “CHIbt, aromatic oxidation with HB” value was -2.9.
